Several values for one entry are separate records, joined by “and”; a condition that tells them apart may be missing. Equal values may be shown once.

In assay [1] the test system is 1-octen-3-ol receptors OR2W1, Olfr93, Olfr120, Olfr398. The experiment in a line: Antagonists of 1-octen-3-ol receptors (Example 11). The assay is classed as cell-based, mouse and human. Also noted: Inhibition(%): concentration or dose not given beside the values. The following applies: Table 19.
Assay [2] relates to geonol receptors Olfr339, Olfr1487, Olfr1A1, OR11A1, Olfr96. The experiment in a line: Antagonists of geonol receptors (Example 11). Conditions: Table 18. Also noted: Inhibition(%): concentration or dose not given beside the values. The assay is classed as cell-based, mouse and human.
The subject of assay [3] is geonol earthy/moss odor perception. As to the kind of experiment: Human sensory performance of test compounds with and without geonol. The assay is classed as in vivo. An excerpt:
Sensory Evaluation: Five 16 oz glass jars containing either REF (geonol only), geonol only control, antagonist only, mixture of geonol and isointense antagonist, or mixture of geonol and low intensity antagonist were presented to the panelists (last four samples were randomized across panelists). The panelists were asked to familiarize themselves with the earthy/moss odor quality from the REF jar first, then rate the pleasantness, earthy/moss odor intensity and overall odor intensity of the next four samples on a 0-10 linear scale. The inter-stimulus interval between the samples was two minutes to avoid adaptation. […]
The results are shown in Tables 16 and 17, and FIGS. 3 to 5.

Assay [4] has as its target T1, OR51E1 olfactory receptor (Homo sapiens, UniProt Q8TCB6).
T1 construct: expressed in transfected cells
T1 sequence (Q8TCB6 1-318): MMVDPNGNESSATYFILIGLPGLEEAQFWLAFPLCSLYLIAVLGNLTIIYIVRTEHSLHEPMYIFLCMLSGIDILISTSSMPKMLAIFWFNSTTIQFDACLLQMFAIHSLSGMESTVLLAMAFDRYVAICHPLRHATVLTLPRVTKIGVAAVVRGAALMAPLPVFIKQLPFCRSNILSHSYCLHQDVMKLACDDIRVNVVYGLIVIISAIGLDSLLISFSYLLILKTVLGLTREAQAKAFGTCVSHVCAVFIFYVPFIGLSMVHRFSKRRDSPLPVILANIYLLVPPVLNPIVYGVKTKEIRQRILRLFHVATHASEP
As to the kind of experiment: Butyric acid olfactory receptor antagonist cell-based dose-response vs butyric acid EC80. The following applies: butyric acid at EC80; Table 5.

What is called IC50 is the midpoint of a concentration-inhibition curve. Take `CCC(O)COC1CCCCC1C(C)(C)C` (stereo not shown): in assay [1], the concentration for half-maximal inhibition (IC50) stood at 53.6 µM and the “Inhibition(%)” value was determined as 13%.
`CC(=O)c1c(C)c([N+](=O)[O-])c(C(C)(C)C)c([N+](=O)[O-])c1C`: in assay [1], the IC50 was 84.7 µM and the “Inhibition(%)” value was 98%.
Consider `CC1CCC2C(C)(C)C3CC12CC1OC13C` (stereo not shown), for which, in assay [1], the IC50 amounted to 85.6 µM and the “Inhibition(%)” value was 91%.
With `CC1COCc2cc3c(cc21)C(C)(C)C(C)C3(C)C` (stereo not shown), in assay [2], the IC50 was found to be 894 µM and the “Inhibition(%)” value was determined as 56%. Besides, in assay [1], the IC50 was determined as 65.2 µM and the “Inhibition(%)” value was 84%.
Turning to `CC1C2CC(CC13C=CC(=O)CC3)C2(C)C` (stereo not shown), in assay [2], the IC50 is 42.4 µM and the “Inhibition(%)” value is recorded as 27%. Besides, in assay [1], the IC50 was found to be 12.5 µM and the “Inhibition(%)” value came to 87%.
Turning to `C[C@@H]1CC[C@]2(O)C(C)(C)[C@H]3CC[C@@]2(C)[C@@H]1C3`, the “% Earthy/Moss Odor Remaining” value was determined as 104.60% in assay [3] (Low Dilution Test Compound + Geonol (0.1%)) and 129.80% in assay [3] (Medium Dilution Test Compound + Geonol (0.1%)). The “% Earthy/Moss Odor” value in assay [3] (Test Compound Only) is 94.10%.
With `CC1CCC2(O)C(C)(C)C3CCC2(C)C1C3` (stereo not shown), in assay [2], it took 34.9 µM to reach half-maximal inhibition (IC50) and the “Inhibition(%)” value came to 68%. In assay [1], inhibition was half-maximal at 81 µM (IC50) and the “Inhibition(%)” value is given as 70%.
In the case of `CC(=O)OC1(C)CCC23CC1C(C)(C)C2CCC3C` (stereo not shown), in assay [1], the IC50 was determined as 72.6 µM and the “Inhibition(%)” value is recorded as 52%.
As for `C=C(C[C@H](C)CO)[C@H]1CC=C(C)C1(C)C`, in assay [2], the midpoint of inhibition, the IC50, lay at 36.6 µM and the “Inhibition(%)” value was found to be 33%. For the same compound, in assay [1], the midpoint of inhibition, the IC50, lay at 54.6 µM and the “Inhibition(%)” value worked out at 27%.
On to `CC1(C)CCCC2(C)C1CCC1(C)OCCC12` (stereo not shown), for which, in assay [2], it took 27.1 µM to reach half-maximal inhibition (IC50) and the “Inhibition(%)” value is listed as 78%. In assay [1], the IC50 turned out to be 101 µM and the “Inhibition(%)” value is 105%.
For the compound `Cc1cc2c(cc1C=O)C(C)(C)[C@H](C)[C@@H](C)C2(C)C`, in assay [1], it took 83.7 µM to reach half-maximal inhibition (IC50) and the “Inhibition(%)” value worked out at 64%.
In the case of `CC(=O)O[C@@H]1C(C)(C)CCC[C@@]12CC=C(C)C[C@@H]2C`, the IC50 in assay [4] turned out to be 37.7 µM. In addition, in assay [2], half-maximal inhibition (IC50) required 267 µM and the “Inhibition(%)” value turned out to be 38%.
Consider “1-(2,2-dimethyl-6-methylidenecyclohexyl)pent-1-en-3-one; 3-methyl-4-(2,6,6-trimethylcyclohex-2-en-1-yl)but-3-en-2-one; 1-(2,6,6-trimethylcyclohexen-1-yl)pent-1-en-3-one; 1-(2,6,6-trimethylcyclohex-2-en-1-yl)pent-1-en-3-one”, for which, in assay [2], the IC50 stood at 136 µM and the “Inhibition(%)” value is given as 49%. Further, in assay [1], the IC50 was found to be 66.8 µM and the “Inhibition(%)” value amounted to 56%.
On to “1-(2,6,6-trimethylcyclohexen-1-yl)hepta-1,6-dien-3-one; 1-(2,6,6-trimethylcyclohex-2-en-1-yl)hepta-1,6-dien-3-one”, for which the half-maximal inhibitory concentration (IC50) stood at 100 µM in assay [4], 49.1 µM in assay [2] and 35.9 µM in assay [1]. The “Inhibition(%)” value is given as 66% in assay [2] and 49% in assay [1].
As to `CC(=O)/C=C/C1C(C)=CCCC1(C)C` (racemic) [(+−)-(3E)-4-(2,6,6-trimethyl-2-cyclohexen-1-yl)-3-buten-2-one], in assay [1], the IC50 was found to be 462 µM and the “Inhibition(%)” value was 79%.
As to `O=C1CCCCCCCCCCCC(=O)OCCO1` [1,4-dioxacycloheptadecane-5,17-dione], in assay [2], the IC50 is 31.7 µM and the “Inhibition(%)” value came to 21%. Moreover, in assay [1], 39.3 µM corresponded to half-maximal inhibition (IC50) and the “Inhibition(%)” value worked out at 38%.
Take `CC=CC(=O)C1=C(C)C=CCC1(C)C` [1-(2,6,6-trimethylcyclohexa-1,3-dien-1-yl)but-2-en-1-one]: in assay [2], the concentration for half-maximal inhibition (IC50) is 129 µM and the “Inhibition(%)” value stood at 35%.
Take `CC=CC(=O)C1=C(C)CCCC1(C)C` [1-(2,6,6-trimethylcyclohexen-1-yl)but-2-en-1-one]: in assay [1], the IC50 was 477 µM and the “Inhibition(%)” value was determined as 72%.
In the case of `CC(CCCC(C)(C)O)CC(O)n1ccc2ccccc21` (stereo not shown) [1-indol-1-yl-3,7-dimethyloctane-1,7-diol], the IC50 in assay [2] amounted to 201 µM; in assay [1] it was 175 µM. In addition, the “Inhibition(%)” value in assay [2] and in assay [1] was 46% in each case.
Take `C=C1C2CCC(C2)C1(C)C` (stereo not shown) [2,2-dimethyl-3-methylidenebicyclo[2.2.1]heptane]: in assay [2], the IC50 turned out to be 219 µM and the “Inhibition(%)” value was 36%.
The corresponding values for `CCCOC(C)OCCc1ccccc1` (stereo not shown) [2-(1-propoxyethoxy)ethylbenzene] are 190 µM and 61%.
The corresponding values for `CC(C)CCOCCc1ccccc1` [2-(3-methylbutoxy)ethylbenzene] are 126 µM and 22%.
Consider `c1ccc(CCCc2ccccn2)cc1` [2-(3-phenylpropyl)pyridine], for which the IC50 in assay [2] turned out to be 41 µM; in assay [1], 153 µM. Moreover, the “Inhibition(%)” value in assay [2] amounted to 196%; in assay [1], 31%.
In the case of `CCC(=CCC1CC=C(C)C1(C)C)CO` (stereo not shown) [2-ethyl-4-(2,2,3-trimethylcyclopent-3-en-1-yl)but-2-en-1-ol], in assay [2], 173 µM corresponded to half-maximal inhibition (IC50) and the “Inhibition(%)” value is reported as 35%.
With `CCC(=CCC1CC=C(C)C1(C)C)CO` (stereo not shown) [2-ethyl-4-[1~{S})-2,2,3-trimethylcyclopent-3-en-1-yl]but-2-e], in assay [2], the midpoint of inhibition, the IC50, lay at 44.6 µM and the “Inhibition(%)” value was found to be 19%.
On to `CC(C)COC(=O)Cc1ccccc1` [2-methylpropyl 2-phenylacetate], for which, in assay [2], the IC50 amounted to 141 µM and the “Inhibition(%)” value is listed as 45%.
For the compound `C=CC(C)(CCC=C(C)C)OC(=O)C(C)C` (stereo not shown) [3,7-dimethylocta-1,6-dien-3-yl 2-methylpropanoate], in assay [1], the IC50 came to 57.1 µM and the “Inhibition(%)” value was found to be 88%.
The corresponding values for `CC(C)=CCCC(C)=CCO` [3,7-dimethylocta-2,6-dien-1-ol] are 190 µM and 18%.
The corresponding values for `CC(C)(C)Cc1cccnc1` [3-(2,2-dimethylpropyl)pyridine] are 117 µM and 25%.
For `CC1C2CC(CC2C2CCCC(O)C2)C1(C)C` (stereo not shown) [3-(5,5,6-trimethyl-2-bicyclo[2.2.1]heptanyl)cyclohexan-1-ol], in assay [2], 100 µM corresponded to half-maximal inhibition (IC50) and the “Inhibition(%)” value came to 29%.
With `CC(=O)C(C)=CC1C(C)=CCCC1(C)C` (stereo not shown) [3-methyl-4-(2,6,6-trimethylcyclohex-2-en-1-yl)but-3-en-2-one], in assay [2], half-maximal inhibition (IC50) required 110 µM and the “Inhibition(%)” value is recorded as 58%. Further, in assay [1], the IC50 came to 120 µM and the “Inhibition(%)” value is listed as 37%.
Turning to `CC1=CCC(CCC(C)C(C)O)C1(C)C` (stereo not shown) [3-methyl-5-(2,2,3-trimethylcyclopent-3-en-1-yl)pentan-2-ol], in assay [2], it took 28.8 µM to reach half-maximal inhibition (IC50) and the “Inhibition(%)” value was 32%.
The corresponding values for `CC(CCO)CCc1ccccc1` (stereo not shown) [3-methyl-5-phenylpentan-1-ol] are 1100 µM and 37%.
`CC(=O)C=CC1=C(C)CCC(C)C1(C)C` (stereo not shown) [4-(2,5,6,6-tetramethylcyclohexen-1-yl)but-3-en-2-one]: in assay [1], the IC50 came to 72.7 µM and the “Inhibition(%)” value is recorded as 23%.
With `CC(C)CC(O)Cc1ccccc1` (stereo not shown) [4-methyl-1-phenylpentan-2-ol], in assay [2], half-maximal inhibition (IC50) required 517 µM and the “Inhibition(%)” value turned out to be 36%.
The corresponding values for `CCCCCCCC1CCCC(=O)O1` (stereo not shown) [6-heptyloxan-2-one] are 197 µM and 29%.
Take `CCCCC[C@H]1CCC[C@H]1O` [(1~{R},2~{S})-2-pentylcyclopentan-1-ol]: the IC50 in assay [2] is 195 µM and 147 µM.
In turn, `C[C@@H]1CC=CCCCCCCCCCC(=O)C1` [(3~{R})-3-methylcyclopentadec-5-en-1-one] came in with a 50% inhibitory concentration (IC50) in assay [4] of 53.7 µM. Besides, in assay [1], half-maximal inhibition (IC50) required 23.4 µM and the “Inhibition(%)” value is 79%.
On to `CC(=O)OC1CCC(C(C)(C)C)CC1` (stereo not shown) [(4-{tert}-butylcyclohexyl) acetate], for which, in assay [1], the IC50 came to 93.8 µM and the “Inhibition(%)” value is on record as 79%.
In the case of `CC(C)CC(=O)OCc1ccccc1` [benzyl 3-methylbutanoate], in assay [2], 220 µM corresponded to half-maximal inhibition (IC50) and the “Inhibition(%)” value was determined as 41%.
The corresponding values for `CCCCCCCC=CC=O` [dec-2-enal] are 262 µM and 40%.
The corresponding values for `CCOC(=O)c1ccccc1C(=O)OCC` [diethyl benzene-1,2-dicarboxylate] are 1580 µM and 32%.
As to `COC(=O)c1ccccc1NC=CC(C)CCCC(C)(C)O` (stereo not shown) [methyl 2-[(7-hydroxy-3,7-dimethyloct-1-enyl)amino]benzoate], in assay [2], the IC50 came out at 213 µM and the “Inhibition(%)” value was 103%.
Regarding `COC(=O)CCCCCCCC/C=C/C=O` [methyl (10E)-12-oxo-10-dodecenoate], the “Inhibition(%)” value in assay [2] stood at 86%.

The values are drawn from patent US20230233425A1, “USE OF VOLATILE COMPOSITIONS TO LIMIT OR ELIMINATE THE PERCEPTION OF MALODOR” (Firmenich SA, priority 2017, published 2023).
